The values that follow come from patent US20080242682A1, “Preventive or Therapeutic Agent for Sleep Disorder” (Takeda Pharmaceutical Company Limited, priority 2004, published 2008).

The test system of test [1] is Macaca fascicularis. Description: Experiment 1: sleep electroencephalogram (sleep latency and sleep duration in the night) in monkeys after oral administration. In kind it is in vivo. To be noted: female Macaca fascicularis, compound A 0.3 mg/kg, ritanserin 1 mg/kg; for SWS (slow-wave sleep) duration in breakdown of sleep duration / total sleep duration: 12 hours from lights-out to lights-on, drug-treated value; for sleep latency of LS / sleep latency of SWS: before lights-out, drug-treated value (vs vehicle, crossover). Here is the method:
3 Female Macaca fascicularis were used for experiment. Drugs were administered according to crossover design. Test animals were operated to place an electrode to measure electroencephalogram, and were naturalized fully to test cage. The test animals were raised under light-dark cycle of 12 hour-light period and 12 hour-dark period (light period is from 6:00 to 18:00).
The dose of compound A was 0.3 mg/kg, and the dose of ritanserin was 1 mg/kg, and these were suspended in 0.5% methylcellulose solution to make dosage of 1 ml/kg. As control, 0.5% methylcellulose solution was used. Administration was conducted orally using transnasal catheter 5 to 10 minutes before extinction (17:50-17:55).
Measurement items were electroencephalogram, ocular movement and myogenic potential, and behavior was observed using infrared camera. Measurement was carried out for 12 hours from lights-out (18:00) to lights-on (6:00).
Data analysis was carried out for sleep latency and total sleep duration in the night.

Test [2] deals with Cat. In words: Experiment 2: effect of combined use of compound A and gabapentin (GBP) on sleep wakefulness of cat (sleep electroencephalogram). To be noted: oral capsule, 8 hours after administration, compound A 0.1 mg/kg, gabapentin 10 mg/kg. In kind it is in vivo. Here is the method: Used animals: 4 Siamese cats (purchased from Narc co.), 2 European shorthairs (purchased from Nisseiken co. Ltd.) and 1 mongrel cat (purchased from Narc co.) were used.
Under pentobarbital anesthesia, the following electrode and the like were implanted. An antibiotic was administered to prevent bacterial infection, and taming to cage for measuring electroencephalogram was started from 3 to 4 days after the operation. Measurement of electroencephalogram was carried out after 1 to 2 weeks of taming. • electrode for recording electroencephalogram in frontal lobe of cerebral cortex, frontal lobe and hippocampus • electrode for electrooculogram in orbit bone • stainless wire for recording electromyogram in dorsal cervical muscle […]
After being attached the electrodes for measurement from about 8:30 in the morning, the cats were placed in test box. Administration was conducted by 9:55 to 10:05 in the morning, and the sleep electroencephalogram for 8 hours after administration was measured.
Electroencephalogram data was obtained using Synafit 2500 of NEC Saneisha. […] In addition, the stage judged to be at slow-wave sleep was extracted, frequency analysis was carried out, and power spectrum during slow-wave sleep was calculated. […]

On to `Cc1nc2sccn2c(=O)c1CCN1CCC(=C(c2ccc(F)cc2)c2ccc(F)cc2)CC1` [ritanserin, reference compound], for which, in test [1], the “SWS (slow-wave sleep) duration in breakdown of sleep duration” value was found to be 249 min, the total sleep duration is 573 min, the “sleep latency of LS” value came out at 12.0 min and the “sleep latency of SWS” value was 39.3 min.
Regarding `CCC(=O)NCC[C@@H]1CCc2ccc3c(c21)CCO3` [compound A, (S)—N-[2-(1,6,7,8-tetrahydro-2H-indeno[5,4-b]furan-8-yl)ethyl]propionamide], in test [1], the “SWS (slow-wave sleep) duration in breakdown of sleep duration” value is 135 min, the total sleep duration is 610 min, the “sleep latency of LS” value was 13.3 min and the “sleep latency of SWS” value turned out to be 31.3 min. Further, the “total slow-wave sleep duration” value in test [2] stood at 124.9 min.
